Test results: PubChem BioAssay (NCI)
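Where inhibition never reached the appropriate level, the endpoint shown equals the highest concentration tested. Otherwise, values were interpolated linearly from a five-concentration, 48-hour dose response in 96-well plates. TGI: total growth inhibition.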

Key:
Assay in all cases: NCI anticancer screen, dose series, 48 h
SF-268 CNS = test system: SF-268 CNS
HCT-116 colon = test system: HCT-116 colon
M14 melanoma = test system: M14 melanoma
MDA-MB-435 = test system: MDA-MB-435
MDA-MB-231 breast = test system: MDA-MB-231 breast
HCT-15 colon = test system: HCT-15 colon
ACHN renal = test system: ACHN renal
HS 578T breast = test system: HS 578T breast
SN12C renal = test system: SN12C renal
SNB-75 CNS = test system: SNB-75 CNS
SK-MEL-2 melanoma = test system: SK-MEL-2 melanoma
T-47D breast = test system: T-47D breast
SF-539 CNS = test system: SF-539 CNS
PC-3 prostate = test system: PC-3 prostate
HCC-2998 colon = test system: HCC-2998 colon
SNB-19 CNS = test system: SNB-19 CNS
OVCAR-8 ovarian = test system: OVCAR-8 ovarian
UACC-62 melanoma = test system: UACC-62 melanoma
NCI-H460 lung = test system: NCI-H460 lung
MOLT-4 leukemia = test system: MOLT-4 leukemia
RXF 393 renal = test system: RXF 393 renal
BT-549 breast = test system: BT-549 breast
NCI-H23 lung = test system: NCI-H23 lung
IGROV1 ovarian = test system: IGROV1 ovarian
LOX IMVI melanoma = test system: LOX IMVI melanoma
DU-145 prostate = test system: DU-145 prostate
NCI/ADR-RES ovarian = test system: NCI/ADR-RES ovarian
COLO 205 colon = test system: COLO 205 colon
EKVX NSCLC = test system: EKVX NSCLC
OVCAR-4 ovarian = test system: OVCAR-4 ovarian
MDA-N = test system: MDA-N
CAKI-1 renal = test system: CAKI-1 renal
RPMI-8226 leukemia = test system: RPMI-8226 leukemia
MCF7 breast = test system: MCF7 breast
UO-31 renal = test system: UO-31 renal
K-562 leukemia = test system: K-562 leukemia
CCRF-CEM leukemia = test system: CCRF-CEM leukemia
A549 NSCLC = test system: A549 NSCLC
OVCAR-5 ovarian = test system: OVCAR-5 ovarian
MALME-3M melanoma = test system: MALME-3M melanoma
KM12 colon = test system: KM12 colon
UACC-257 melanoma = test system: UACC-257 melanoma
A498 renal = test system: A498 renal
NCI-H226 lung = test system: NCI-H226 lung
SR leukemia = test system: SR leukemia
SW-620 colon = test system: SW-620 colon
HOP-92 NSCLC = test system: HOP-92 NSCLC
OVCAR-3 ovarian = test system: OVCAR-3 ovarian
SF-295 CNS = test system: SF-295 CNS
U251 CNS = test system: U251 CNS
786-0 renal = test system: 786-0 renal
SK-MEL-28 melanoma = test system: SK-MEL-28 melanoma
TK-10 renal = test system: TK-10 renal
HT29 colon = test system: HT29 colon
NCI-H522 lung = test system: NCI-H522 lung
SK-MEL-5 melanoma = test system: SK-MEL-5 melanoma
SK-OV-3 ovarian = test system: SK-OV-3 ovarian
HOP-62 NSCLC = test system: HOP-62 NSCLC
HL-60(TB) leukemia = test system: HL-60(TB) leukemia

CN(C)CCOc1ccc(-c2c(Oc3ccccc3)c(=O)oc3ccccc23)cc1
TGI (SF-268 CNS): 25.4 µM | TGI (HCT-116 colon): 15.5 µM | TGI (M14 melanoma): 4.63 µM | TGI (MDA-MB-435): 21.2 µM | TGI (MDA-MB-231 breast): 18.8 µM | TGI (HCT-15 colon): 22.6 µM | TGI (ACHN renal): 24.4 µM | TGI (HS 578T breast): 35.2 µM | TGI (SN12C renal): 26.9 µM | TGI (SNB-75 CNS): 23.6 µM | TGI (SK-MEL-2 melanoma): 28.9 µM | TGI (T-47D breast): 44.1 µM | TGI (SF-539 CNS): 27.9 µM | TGI (PC-3 prostate): 23.1 µM | TGI (HCC-2998 colon): 20.8 µM | TGI (SNB-19 CNS): 20.8 µM | TGI (OVCAR-8 ovarian): 29.6 µM | TGI (UACC-62 melanoma): 27.2 µM | TGI (NCI-H460 lung): 29 µM | TGI (MOLT-4 leukemia): 20.5 µM | TGI (RXF 393 renal): 17.6 µM | TGI (BT-549 breast): 26.6 µM | TGI (NCI-H23 lung): 28.6 µM | TGI (IGROV1 ovarian): 25.2 µM | TGI (LOX IMVI melanoma): 25.9 µM | TGI (DU-145 prostate): 29.3 µM | TGI (NCI/ADR-RES ovarian): 25 µM | TGI (COLO 205 colon): 24.7 µM | TGI (EKVX NSCLC): 27.5 µM | TGI (OVCAR-4 ovarian): 59 µM | TGI (MDA-N): 4.7 µM | TGI (CAKI-1 renal): 48.7 µM | TGI (RPMI-8226 leukemia): 40.8 µM | TGI (MCF7 breast): 17.5 µM | TGI (UO-31 renal): 19.9 µM | TGI (K-562 leukemia): 23 µM | TGI (CCRF-CEM leukemia): 4.94 µM | TGI (A549 NSCLC): 15.3 µM | TGI (OVCAR-5 ovarian): 29.2 µM | TGI (MALME-3M melanoma): 25.8 µM | TGI (KM12 colon): 77.8 µM | TGI (UACC-257 melanoma): 19.5 µM | TGI (A498 renal): 27 µM | TGI (NCI-H226 lung): 31.6 µM | TGI (SR leukemia): 19.4 µM | TGI (SW-620 colon): 23.8 µM | TGI (HOP-92 NSCLC): 32.7 µM | TGI (OVCAR-3 ovarian): 26 µM | TGI (SF-295 CNS): 17.2 µM | TGI (U251 CNS): 17.3 µM | TGI (786-0 renal): 20.5 µM | TGI (SK-MEL-28 melanoma): 25.5 µM | TGI (TK-10 renal): 26.4 µM | TGI (HT29 colon): 25.4 µM | TGI (NCI-H522 lung): 24.1 µM | TGI (SK-MEL-5 melanoma): 13.1 µM

COc1cccc2cc(C(=O)Nc3ccccc3)c(=N)oc12
TGI (SF-268 CNS): > 100 µM | TGI (HCT-116 colon): > 100 µM | TGI (M14 melanoma): > 100 µM | TGI (MDA-MB-435): > 100 µM | TGI (MDA-MB-231 breast): > 100 µM | TGI (HCT-15 colon): > 100 µM | TGI (ACHN renal): > 100 µM | TGI (SK-OV-3 ovarian): > 100 µM | TGI (HS 578T breast): > 84.7 µM | TGI (SN12C renal): > 100 µM | TGI (SNB-75 CNS): > 87.9 µM | TGI (SK-MEL-2 melanoma): > 100 µM | TGI (T-47D breast): > 31.4 µM | TGI (SF-539 CNS): > 100 µM | TGI (PC-3 prostate): > 100 µM | TGI (SNB-19 CNS): > 100 µM | TGI (OVCAR-8 ovarian): > 100 µM | TGI (UACC-62 melanoma): > 100 µM | TGI (NCI-H460 lung): > 100 µM | TGI (MOLT-4 leukemia): > 100 µM | TGI (RXF 393 renal): > 100 µM | TGI (BT-549 breast): > 100 µM | TGI (NCI-H23 lung): > 100 µM | TGI (IGROV1 ovarian): > 100 µM | TGI (LOX IMVI melanoma): > 100 µM | TGI (DU-145 prostate): > 100 µM | TGI (NCI/ADR-RES ovarian): > 100 µM | TGI (COLO 205 colon): > 100 µM | TGI (EKVX NSCLC): > 100 µM | TGI (OVCAR-4 ovarian): > 100 µM | TGI (MDA-N): > 100 µM | TGI (CAKI-1 renal): > 100 µM | TGI (RPMI-8226 leukemia): > 100 µM | TGI (MCF7 breast): > 100 µM | TGI (UO-31 renal): > 100 µM | TGI (K-562 leukemia): > 100 µM | TGI (CCRF-CEM leukemia): > 100 µM | TGI (A549 NSCLC): > 100 µM | TGI (OVCAR-5 ovarian): > 100 µM | TGI (MALME-3M melanoma): > 100 µM | TGI (KM12 colon): > 100 µM | TGI (UACC-257 melanoma): > 100 µM | TGI (A498 renal): > 100 µM | TGI (NCI-H226 lung): > 100 µM | TGI (HOP-62 NSCLC): > 100 µM | TGI (SR leukemia): > 100 µM | TGI (SW-620 colon): > 100 µM | TGI (HOP-92 NSCLC): > 100 µM | TGI (OVCAR-3 ovarian): > 100 µM | TGI (SF-295 CNS): > 100 µM | TGI (U251 CNS): > 100 µM | TGI (786-0 renal): > 100 µM | TGI (SK-MEL-28 melanoma): > 100 µM | TGI (TK-10 renal): > 100 µM | TGI (HT29 colon): > 100 µM | TGI (HL-60(TB) leukemia): > 100 µM | TGI (NCI-H522 lung): > 100 µM | TGI (SK-MEL-5 melanoma): > 100 µM
